For series [1] the following is noted: rat, in vivo.
Method: (§1) SD-JCL male rats with an average body weight of 250 g were used as test animals. Under pentobarbital anesthesia, the abdomen of each animal was clipped off hairs (20 cm^2: 5 x 4 cm) with an electric clipper and the sample was applied to the denuded area. Using 5 rats, 0.12 ml of venous blood was taken from the tail vein 1, 2, 4 and 6 hours after application of the sample. Each blood specimen was centrifuged and 0.05 ml of the plasma was put in a polyethylene minivial containing 5 ml of a toluenic scintillator and stirred. After standing, the total radioactivity of the plasma sample was measured with a β-ray scintillation spectrometer and the TRH equivalent concentration of the plasma (µg.eq./ml) was calculated.
(§2) The percutaneous absorption of TRH tartrate was evaluated in AUC6 (the area under the blood concentration-time curve during 0 to 6 hours).
A short description of a further series: in vivo. Conditions: male, SD-JCL, rat, topical or ocular.
A short description of series [2]: Percutaneous absorption test in rats, TRH equivalent plasma concentration from total radioactivity (3H-labeled TRH). The class given is in vivo, SD-JCL male rats. Conditions: additive in propylene glycol preparation of TRH tartrate (Comparative Example 2).
Method: as §1, §2
For series [3] the following is noted: rat, in vivo. The protocol:
3 mg of clonidine, an antihypertensive drug, was dissolved in a mixture of 20 mg of lauric acid, one of the percutaneous absorption promoting agents according to this invention, and 177 mg of propylene glycol to prepare a coating sample.
A percutaneous absorption test was carried out in male SD-JCL rats with an average body weight of 250 g. Under pentobarbital anesthesia, the abdomen of each rat was clipped of hairs with an electric clipper and the sample was coated on the denuded abdominal area (5 x 4 cm).
The collected venous blood was centrifuged and 0.2 ml of the plasma was extracted with 1 ml of 0.01 N-NaOH and 5 ml of chloroform. From a 4 ml portion of the chloroform layer, the chloroform was distilled off and the residue was dissolved by addition of 0.2ml of 0.05 M sodium acetate-acetonitrile-tetrahydrofuran (70:30:0.2, v/v). A 50 µl portion of the solution was applied to a liquid chromatograph to determine the concentration of clonidine. The µ-Bondapak Cl8 column was used for this liquid chromatography. The percutaneous absorption of clonidine was evaluated in terms of AUC6 (area under the blood concentration-time curve of clonidine during 0 to 6 hours) and its multiple over the [formula] of the preparation of Comparative Example 1 was calculated.
The source holds these as a separate data set.

A short description of series [4]: Percutaneous absorption test in rats, TRH equivalent plasma concentration from total radioactivity (3H-labeled TRH).

Read-outs that look alike come from different tables or passages of the source.

Consider `NC(=O)C1CCCN1C(=O)C(Cc1c[nH]cn1)NC(=O)C1CCC(=O)O1` [DN-1417, y-butyrolactone-y-carbonyl-L-histidyl-L-prolinamide], for which, in series [1], the “AUC6 (the area under the blood concentration-time curve during 0 to 6 hours)” value is listed as 0.3 ug.eq.hr/ml. Take `CCNC(=O)[C@@H]1CCCN1C(=O)[C@H](CCCNC(=N)N)NC(=O)[C@H](CC(C)C)NC(=O)[C@@H](CC(C)C)NC(=O)[C@H](Cc1ccc(O)cc1)NC(=O)[C@H](CO)NC(=O)[C@H](Cc1c[nH]c2ccccc12)NC(=O)[C@H](Cc1c[nH]cn1)NC(=O)[C@@H]1CCC(=O)N1` [TAP-144]: the AUC(0-t) in the series “in vivo” worked out at 0.5 ng·h/mL. In the case of `CCCCCCCCCCCCCC(=O)OC(C)C` [isopropyl myristate], the “absorption promoting effect of the additive” value in series [2] is given as “no absorption promoting effect”. In the case of `CCCCCCCCCCCC(=O)O` [lauric acid], the “effectiveness of the percutaneous absorption promoting agent for clonidine” value in series [3] is recorded as “ineffective”. On the same count and under the same terms, the value for `CCCCCCCCCCCCN` [laurylamine] was “ineffective”; that for `CCCCCCCC/C=C\CCCCCCCC(N)=O` [oleamide] was “ineffective”. The same measure, in the same setting: as for `CCCCCCCC/C=C\CCCCCCCC(=O)O` [oleic acid], the entry is “ineffective”.

With “L-pyroglutamyl-L-histidyl-L-prolinamide [TRH tartrate]”, the “AUC6 (the area under the blood concentration-time curve during 0 to 6 hours)” value in series [4] (Comparative Example 1 (TRH tartrate in propylene glycol, no absorption promoter), restated in Example 5) worked out at 0.16 ug.eq.hr/ml; in series [4] (Comparative Example 6: 0.8 mg TRH tartrate in 179.2 mg propylene glycol + 20 mg caprylyl alcohol (C8)), 0.19 pg.eq/ml; in series [4] (Example 3: 0.8 mg TRH tartrate in 179.2 mg propylene glycol + 20 mg lauric acid, site wiped 5 times with ethanol-sanitary cotton before application), 2.22 µg.eq.hr/ml; in series [4] (Example 4: 0.8 mg TRH tartrate in 179.2 mg propylene glycol + 20 mg lauric acid, horny layer stripped 3 times with cellophane tape before application) it was 6.06 ug.eq.hr/ml. Moreover, the “multiple of the AUC6 value over the control preparation of Comparative Example 1” value in series [4] (Example 1 preparation (20 mg oleic acid) vs Comparative Example 1 (no absorption promoter)) is “approximately 8 times”; in series [4] (Example 3 (20 mg lauric acid, ethanol wiping) vs Comparative Example 1), 14 times; in series [4] (Example 4 (20 mg lauric acid, horny layer stripped) vs Comparative Example 1) it was 38 times. With “L-pyroglutamyl-L-histidyl-L-prolinamide [TRH]”, the “multiple of the AUC6 value over Comparative Example 1” value in series [4] (Example 5 (TRH, 30 mg oleic acid) vs Comparative Example 1) was found to be 8.7 times. Besides, the “AUC6 (the area under the blood concentration-time curve during 0 to 6 hours)” value in series [4] (Example 5: 0.5 mg TRH in 169.5 mg propylene glycol + 30 mg oleic acid) came to 1.4 µg.eq.hr/ml.

The values are drawn from patent EP0127426A1, “Percutaneous pharmaceutical compositions for external use” (Takeda Chemical Industries, Ltd., priority 1983, dated 1984).
